# Experimental data: ChEMBL document CHEMBL3091421, “Discovery of benzo[d]imidazo[5,1-b]thiazole as a new class of phosphodiesterase 10A inhibitors” (Bioorg Med Chem Lett, 2013)
# Tests used:
# Rattus norvegicus [1] = assay: Antipsychotic activity in Sprague-Dawley rat assessed as reduction in quipazine-induced head-twitches at 1 mg/kg, ip administered 15 mins prior to quipazine-challenge measured immediately relative to vehicle-treated control; format: functional; design: scale not given: the % may be the effect or the level left; conditions: route intraperitoneal
# Rattus norvegicus [2] = assay: Antipsychotic activity in Sprague-Dawley rat assessed as reduction in quipazine-induced head-twitches at 0.3 mg/kg, ip administered 15 mins prior to quipazine-challenge measured immediately relative to vehicle-treated control; format: functional; design: scale not given: the % may be the effect or the level left; conditions: route intraperitoneal
# Rattus norvegicus [3] = assay: Antipsychotic activity in ip dosed Sprague-Dawley rat assessed as reduction in quipazine-induced head-twitches administered 15 mins prior to quipazine-challenge measured immediately relative to vehicle-treated control; format: functional
# Rattus norvegicus [4] = assay: Antipsychotic activity in Sprague-Dawley rat conditioned avoidance response model assessed as reduction in avoidance at 6 mg/kg, ip after 15 mins relative to vehicle-treated control; format: functional; design: scale not given: the % may be the effect or the level left; conditions: route intraperitoneal
# Rattus norvegicus [5] = assay: Antipsychotic activity in ip dosed Sprague-Dawley rat psychosis model assessed as inhibition of MK-801-induced stereotypy administered 5 mins prior to MK-801-challenge measured after 15 mins up to 1 hr relative to vehicle-treated control; format: functional, organism-based
# Rattus norvegicus [6] = assay: Antipsychotic activity in Sprague-Dawley rat psychosis model assessed as inhibition of MK-801-induced ataxia at 10 mg/kg, ip administered 5 mins prior to MK-801-challenge measured after 15 mins up to 1 hr relative to vehicle-treated control; format: functional; conditions: route intraperitoneal
# Rattus norvegicus [7] = assay: Antipsychotic activity in Sprague-Dawley rat psychosis model assessed as inhibition of MK-801-induced ataxia at 0.3 mg/kg, ip administered 5 mins prior to MK-801-challenge measured after 15 mins up to 1 hr relative to vehicle-treated control; format: functional; conditions: route intraperitoneal
# Rattus norvegicus [8] = assay: Antipsychotic activity in Sprague-Dawley rat psychosis model assessed as inhibition of MK-801-induced locomotion at 10 mg/kg, ip administered 5 mins prior to MK-801-challenge measured after 15 mins up to 1 hr relative to vehicle-treated control; format: functional; conditions: route intraperitoneal
# Rattus norvegicus [9] = assay: Antipsychotic activity in Sprague-Dawley rat psychosis model assessed as inhibition of MK-801-induced locomotion at 6 mg/kg, ip administered 5 mins prior to MK-801-challenge measured after 15 mins up to 1 hr relative to vehicle-treated control; format: functional; conditions: route intraperitoneal
# Rattus norvegicus [10] = assay: Antipsychotic activity in Sprague-Dawley rat psychosis model assessed as inhibition of MK-801-induced locomotion at 0.3 mg/kg, ip administered 5 mins prior to MK-801-challenge measured after 15 mins up to 1 hr relative to vehicle-treated control; format: functional; conditions: route intraperitoneal
# Rattus norvegicus [11] = assay: Antipsychotic activity in Sprague-Dawley rat psychosis model assessed as inhibition of MK-801-induced locomotion at 1 mg/kg, ip administered 5 mins prior to MK-801-challenge measured after 15 mins up to 1 hr relative to vehicle-treated control; format: functional; conditions: route intraperitoneal
# [12] = AUC (0 to 24 hrs) in Sprague-Dawley rat at 10 mg/kg, po by LC-MS/MS analysis; format: ADME, organism-based; design: time < 24 hr, dose 10 mg/kg, route oral; conditions: plasma
# [13] = Cmax in Sprague-Dawley rat at 10 mg/kg, po by LC-MS/MS analysis; format: ADME, organism-based; design: dose 10 mg/kg, route oral; conditions: in vivo
# Homo sapiens = species: Homo sapiens; assay: Selectivity ratio of IC50 for PDE2A (unknown origin) to IC50 for human recombinant PDE10A
# [14] = target: Dual 3',5'-cyclic-AMP and -GMP phosphodiesterase 11A (Homo sapiens) (UniProt Q9HCR9); assay: Inhibition of PDE11A (unknown origin) using [3H]-cAMP as substrate at 10 uM after 30 mins by radiometric assay
# [15] = target: High affinity cGMP-specific 3',5'-cyclic phosphodiesterase 9A (Homo sapiens) (UniProt O76083); assay: Inhibition of PDE9A2 (unknown origin) using [3H]-cGMP as substrate at 10 uM after 30 mins by radiometric assay
# [16] = target: High affinity cAMP-specific and IBMX-insensitive 3',5'-cyclic phosphodiesterase 8A (Homo sapiens) (UniProt O60658); assay: Inhibition of PDE8A (unknown origin) using [3H]-cAMP as substrate at 10 uM after 30 mins by radiometric assay
# [17] = target: High affinity 3',5'-cyclic-AMP phosphodiesterase 7A (Homo sapiens) (UniProt Q13946); assay: Inhibition of PDE7A1 (unknown origin) using [3H]-cAMP as substrate at 10 uM after 30 mins by radiometric assay
# [18] = target: cGMP-specific 3',5'-cyclic phosphodiesterase (Homo sapiens) (UniProt O76074); assay: Inhibition of PDE5A (unknown origin) using [3H]-cGMP as substrate at 10 uM after 30 mins by radiometric assay
# [19] = target: cGMP-inhibited 3',5'-cyclic phosphodiesterase 3A (Homo sapiens) (UniProt Q14432); assay: Inhibition of PDE3A (unknown origin) using cAMP as substrate at 10 uM after 30 mins by HTRF method
# [20] = target: cGMP-dependent 3',5'-cyclic phosphodiesterase (Homo sapiens) (UniProt O00408); assay: Inhibition of PDE2A (unknown origin) using cAMP as substrate at 10 uM after 30 mins by HTRF method
# [21] = Metabolic stability in rat liver microsomes assessed as compound remaining after 60 mins; format: ADME; conditions: read-out: Stability
# [22] = Metabolic stability in human liver microsomes assessed as compound remaining after 60 mins; format: ADME; conditions: read-out: Stability
# [23] = target: cAMP and cAMP-inhibited cGMP 3',5'-cyclic phosphodiesterase 10A (Homo sapiens, UniProt Q9Y233); assay: Inhibition of human recombinant PDE10A using [3H]-cAMP/[3H]-cGMP as substrate after 30 mins by radiometric assay
# cAMP and cAMP-inhibited cGMP 3',5'-cyclic phosphodiesterase 10A, sequence (Q9Y233 whole entry): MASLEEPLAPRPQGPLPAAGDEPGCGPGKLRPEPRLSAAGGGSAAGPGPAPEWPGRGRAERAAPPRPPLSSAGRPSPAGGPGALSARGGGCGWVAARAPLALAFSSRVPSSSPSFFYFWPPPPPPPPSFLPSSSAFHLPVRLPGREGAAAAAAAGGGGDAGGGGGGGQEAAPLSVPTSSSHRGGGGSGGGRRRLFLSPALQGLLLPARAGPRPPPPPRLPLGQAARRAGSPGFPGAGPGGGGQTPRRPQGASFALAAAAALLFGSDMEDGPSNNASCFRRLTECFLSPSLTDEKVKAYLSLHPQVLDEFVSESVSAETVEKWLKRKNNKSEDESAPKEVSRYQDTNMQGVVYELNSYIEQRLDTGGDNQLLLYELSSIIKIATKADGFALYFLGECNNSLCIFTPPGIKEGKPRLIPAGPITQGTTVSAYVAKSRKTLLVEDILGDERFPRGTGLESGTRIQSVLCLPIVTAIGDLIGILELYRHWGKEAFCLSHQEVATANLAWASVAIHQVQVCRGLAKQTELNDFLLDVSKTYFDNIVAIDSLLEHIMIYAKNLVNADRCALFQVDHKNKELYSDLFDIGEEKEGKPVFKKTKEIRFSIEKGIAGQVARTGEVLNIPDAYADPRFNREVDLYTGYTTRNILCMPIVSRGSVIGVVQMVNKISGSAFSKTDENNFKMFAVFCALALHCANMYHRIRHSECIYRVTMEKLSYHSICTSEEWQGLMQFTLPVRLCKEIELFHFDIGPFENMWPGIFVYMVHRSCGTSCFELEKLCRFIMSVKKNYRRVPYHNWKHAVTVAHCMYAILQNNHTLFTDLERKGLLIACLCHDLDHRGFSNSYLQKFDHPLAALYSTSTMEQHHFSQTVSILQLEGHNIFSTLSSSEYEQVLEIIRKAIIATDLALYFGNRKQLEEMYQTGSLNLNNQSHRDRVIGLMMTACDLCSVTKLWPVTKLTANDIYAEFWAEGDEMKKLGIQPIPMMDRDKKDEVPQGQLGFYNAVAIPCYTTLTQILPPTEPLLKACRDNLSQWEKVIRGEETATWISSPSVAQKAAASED
# cGMP-inhibited 3',5'-cyclic phosphodiesterase 3A (Homo sapiens), sequence (Q14432 whole entry): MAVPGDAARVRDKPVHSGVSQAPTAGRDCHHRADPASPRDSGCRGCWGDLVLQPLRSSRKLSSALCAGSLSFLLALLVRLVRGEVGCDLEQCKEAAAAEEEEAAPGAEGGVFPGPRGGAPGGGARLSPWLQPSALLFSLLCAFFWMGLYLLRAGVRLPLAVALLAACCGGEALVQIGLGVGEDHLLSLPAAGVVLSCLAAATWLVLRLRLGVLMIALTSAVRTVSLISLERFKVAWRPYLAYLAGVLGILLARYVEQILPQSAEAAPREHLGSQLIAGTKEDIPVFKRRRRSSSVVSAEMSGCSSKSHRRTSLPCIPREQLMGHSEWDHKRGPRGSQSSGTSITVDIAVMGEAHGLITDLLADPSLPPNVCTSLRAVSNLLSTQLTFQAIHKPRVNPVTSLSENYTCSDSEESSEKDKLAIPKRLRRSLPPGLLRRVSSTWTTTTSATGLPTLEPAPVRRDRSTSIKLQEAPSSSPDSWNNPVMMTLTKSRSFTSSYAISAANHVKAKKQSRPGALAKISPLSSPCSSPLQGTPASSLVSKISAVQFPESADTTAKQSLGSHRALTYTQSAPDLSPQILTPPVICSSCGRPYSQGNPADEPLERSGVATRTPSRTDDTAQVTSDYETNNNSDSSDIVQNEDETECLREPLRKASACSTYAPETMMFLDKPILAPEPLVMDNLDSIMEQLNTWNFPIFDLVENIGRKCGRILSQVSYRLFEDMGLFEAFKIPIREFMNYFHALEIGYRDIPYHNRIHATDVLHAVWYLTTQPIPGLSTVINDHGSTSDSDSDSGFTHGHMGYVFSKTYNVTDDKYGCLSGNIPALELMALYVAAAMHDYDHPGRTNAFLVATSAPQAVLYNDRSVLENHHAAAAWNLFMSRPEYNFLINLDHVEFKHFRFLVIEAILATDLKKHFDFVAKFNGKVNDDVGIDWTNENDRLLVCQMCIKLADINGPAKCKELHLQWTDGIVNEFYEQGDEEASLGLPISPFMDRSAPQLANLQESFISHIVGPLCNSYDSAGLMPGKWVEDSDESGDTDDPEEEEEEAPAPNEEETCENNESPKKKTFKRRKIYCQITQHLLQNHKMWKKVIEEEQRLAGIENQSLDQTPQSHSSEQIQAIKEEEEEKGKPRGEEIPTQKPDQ
# High affinity 3',5'-cyclic-AMP phosphodiesterase 7A (Homo sapiens), sequence (Q13946 whole entry): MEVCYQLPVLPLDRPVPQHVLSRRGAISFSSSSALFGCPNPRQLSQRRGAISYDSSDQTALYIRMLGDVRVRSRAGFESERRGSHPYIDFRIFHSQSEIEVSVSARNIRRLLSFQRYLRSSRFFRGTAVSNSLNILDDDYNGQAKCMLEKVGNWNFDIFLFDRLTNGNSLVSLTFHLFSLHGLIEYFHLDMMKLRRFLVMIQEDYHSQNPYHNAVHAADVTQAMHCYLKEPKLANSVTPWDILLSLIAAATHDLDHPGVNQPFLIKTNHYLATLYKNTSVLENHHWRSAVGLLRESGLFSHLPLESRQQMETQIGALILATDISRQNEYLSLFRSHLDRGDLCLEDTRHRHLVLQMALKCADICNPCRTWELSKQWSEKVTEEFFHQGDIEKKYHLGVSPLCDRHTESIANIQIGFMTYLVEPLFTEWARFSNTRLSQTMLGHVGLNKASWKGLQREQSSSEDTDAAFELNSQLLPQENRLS
# High affinity cAMP-specific and IBMX-insensitive 3',5'-cyclic phosphodiesterase 8A (Homo sapiens), sequence (O60658 whole entry): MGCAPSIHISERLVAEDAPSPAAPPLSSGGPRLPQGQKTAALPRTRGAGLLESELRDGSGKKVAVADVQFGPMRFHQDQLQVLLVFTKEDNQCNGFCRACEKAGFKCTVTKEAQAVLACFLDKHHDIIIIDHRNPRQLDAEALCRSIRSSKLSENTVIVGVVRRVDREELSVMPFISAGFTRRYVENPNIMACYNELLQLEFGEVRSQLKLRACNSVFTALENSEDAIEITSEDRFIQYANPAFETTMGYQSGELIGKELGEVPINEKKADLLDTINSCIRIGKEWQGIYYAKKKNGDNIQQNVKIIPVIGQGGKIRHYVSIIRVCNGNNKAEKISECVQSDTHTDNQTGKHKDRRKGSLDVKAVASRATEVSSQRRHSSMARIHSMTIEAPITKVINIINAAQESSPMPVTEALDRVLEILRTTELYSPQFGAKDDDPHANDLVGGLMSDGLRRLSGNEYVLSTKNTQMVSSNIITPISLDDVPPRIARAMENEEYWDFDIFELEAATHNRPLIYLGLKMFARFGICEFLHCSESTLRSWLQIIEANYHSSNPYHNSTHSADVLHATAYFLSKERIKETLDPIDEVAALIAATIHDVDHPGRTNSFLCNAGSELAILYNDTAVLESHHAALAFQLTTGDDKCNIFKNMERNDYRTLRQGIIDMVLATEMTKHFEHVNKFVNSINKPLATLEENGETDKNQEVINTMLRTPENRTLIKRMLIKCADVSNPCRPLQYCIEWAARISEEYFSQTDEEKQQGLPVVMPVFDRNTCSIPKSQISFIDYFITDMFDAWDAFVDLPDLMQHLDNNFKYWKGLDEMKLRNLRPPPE
# Dual 3',5'-cyclic-AMP and -GMP phosphodiesterase 11A (Homo sapiens), sequence (Q9HCR9 whole entry, looked up): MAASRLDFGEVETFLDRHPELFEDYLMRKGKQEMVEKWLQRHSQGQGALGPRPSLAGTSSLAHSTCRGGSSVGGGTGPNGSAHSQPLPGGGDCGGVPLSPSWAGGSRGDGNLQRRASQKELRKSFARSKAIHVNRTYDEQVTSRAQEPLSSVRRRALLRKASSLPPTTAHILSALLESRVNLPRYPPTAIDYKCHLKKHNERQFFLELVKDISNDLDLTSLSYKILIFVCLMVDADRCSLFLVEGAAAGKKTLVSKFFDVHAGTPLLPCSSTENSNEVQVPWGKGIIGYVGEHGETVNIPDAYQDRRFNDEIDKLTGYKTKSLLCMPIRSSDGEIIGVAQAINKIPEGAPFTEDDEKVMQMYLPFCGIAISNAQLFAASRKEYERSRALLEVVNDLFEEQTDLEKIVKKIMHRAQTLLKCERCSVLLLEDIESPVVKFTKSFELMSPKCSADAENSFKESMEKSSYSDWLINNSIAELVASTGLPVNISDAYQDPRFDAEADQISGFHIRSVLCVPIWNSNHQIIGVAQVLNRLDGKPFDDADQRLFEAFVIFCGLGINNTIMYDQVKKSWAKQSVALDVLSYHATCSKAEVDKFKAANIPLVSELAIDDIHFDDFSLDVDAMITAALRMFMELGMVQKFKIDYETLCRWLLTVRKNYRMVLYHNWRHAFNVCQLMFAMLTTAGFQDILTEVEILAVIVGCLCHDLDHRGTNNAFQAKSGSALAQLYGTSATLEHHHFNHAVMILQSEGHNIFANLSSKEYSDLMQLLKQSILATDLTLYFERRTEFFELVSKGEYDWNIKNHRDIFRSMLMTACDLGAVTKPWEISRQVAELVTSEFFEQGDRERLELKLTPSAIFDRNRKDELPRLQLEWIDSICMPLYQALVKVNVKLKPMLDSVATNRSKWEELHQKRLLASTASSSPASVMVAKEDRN
# High affinity cGMP-specific 3',5'-cyclic phosphodiesterase 9A (Homo sapiens), sequence (O76083 whole entry): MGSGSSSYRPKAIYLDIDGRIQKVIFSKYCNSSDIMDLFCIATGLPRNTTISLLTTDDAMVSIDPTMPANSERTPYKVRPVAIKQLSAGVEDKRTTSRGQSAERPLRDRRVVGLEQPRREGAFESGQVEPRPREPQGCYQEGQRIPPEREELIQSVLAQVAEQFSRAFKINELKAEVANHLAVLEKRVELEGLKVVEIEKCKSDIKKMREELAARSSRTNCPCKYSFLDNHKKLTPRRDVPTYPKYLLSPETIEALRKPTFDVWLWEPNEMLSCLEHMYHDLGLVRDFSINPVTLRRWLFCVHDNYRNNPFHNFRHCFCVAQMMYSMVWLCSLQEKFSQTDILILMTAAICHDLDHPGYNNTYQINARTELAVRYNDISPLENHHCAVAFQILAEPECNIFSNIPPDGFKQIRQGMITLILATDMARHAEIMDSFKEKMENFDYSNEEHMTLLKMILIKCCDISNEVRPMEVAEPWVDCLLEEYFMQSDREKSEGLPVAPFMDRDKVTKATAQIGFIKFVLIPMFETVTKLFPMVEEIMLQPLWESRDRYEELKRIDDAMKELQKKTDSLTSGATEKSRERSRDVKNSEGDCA
compound,measurement,setting,value
Cc1nc(C2CCOCC2)n2c1sc1cc(OCc3ccc4ccccc4n3)ccc12,Activity,Rattus norvegicus [1],47%
same,Activity,Rattus norvegicus [2],25%
same,ED50,Rattus norvegicus [3],1.27 mg/kg
same,Activity,Rattus norvegicus [4],94%
same,inhibition,Rattus norvegicus [5],Dose-dependent effect
same,inhibition in vivo at 10 mg/kg,Rattus norvegicus [6],82%
same,inhibition in vivo at 0.3 mg/kg,Rattus norvegicus [7],3%
same,inhibition in vivo at 10 mg/kg,Rattus norvegicus [8],83%
same,inhibition in vivo at 6 mg/kg,Rattus norvegicus [9],76%
same,inhibition in vivo at 0.3 mg/kg,Rattus norvegicus [10],13%
same,inhibition in vivo at 1 mg/kg,Rattus norvegicus [11],41%
same,AUC(0-t) at 24 h,[12],2830 ng·h/mL
same,Cmax,[13],720 ng/mL
same,Ratio IC50,Homo sapiens,> 500
same,inhibition,[14],19.2%
same,inhibition,[15],16.5%
same,inhibition,[16],18.5%
same,inhibition,[17],44%
same,inhibition,[18],45.5%
same,inhibition,[19],11.3%
same,inhibition,[20],60.8%
same,remaining at 1 h,[21],65%
same,remaining at 1 h,[22],57%
same,IC50,[23],7.45 nM
